# Tests used:
# [1] = system: P. falciparum male gametocytes; experiment: PhIDDLI screening assay, 24 h preincubation at 10xIC50, tubulin/DAPI imaging of male gametogenesis; format: cell-based, Plasmodium falciparum NF54; conditions: approximately 10xIC50, fixed 20 min post-induction
# Experimental: Mature gametocytes were treated for 24h with approximately 10xIC50 of test compounds or DMSO as a solvent control. Male gametogenesis was then induced by lowering the temperature from 37°C to ~20°C and adding xanthurenic acid. 20min later, when male gametogenesis (exflagellation) could be expected to peak, all samples were fixed. A sample of non-induced DMSO-treated gametocytes was fixed with 4% paraformaldehyde to provide an unactivated gametocyte control for comparison. The cells were then processed for immunofluorescence using an antibody against alpha-tubulin II and DNA staining with 4′,6-diamidino-2-phenylindole (DAPI) and visualised by fluorescence microscopy. Tubulin-bright cells from each treated sample were imaged and captured at random.
# Cells were identified using a semi-automated pipeline established in the ICY BioImageAnalysis (https://icy.bioimageanalysis.org/) protocols module. Images and accompanying bounding boxes representing the outlines of identified cells were then passed to the PhIDDLI pipeline. PhIDDLI consists of several open source image processing and AI/ML modules connected for seamless processing, clustering and visualisation of cellular phenotypes (Fig 3A). […] To focus on the overall cellular phenotype rather than potentially confounding variable immunostaining intensities between experimental replicates, cells were transformed so that the range of staining intensities for each channel were normalised to fall between a 0–255 pixel intensity value. Then, using the Albumentations module (https://albumentations.ai/) to augment the dataset and control for cells in different orientations, each extracted cell image was rotated 90, 180 and 270 degrees and mirrored so that each cell was represented eight different times in the dataset. The augmented images were then passed to the EffcientNet-B1 module (https://github.com/tensorflow/tpu/tree/master/models/official/efficientnet) (a pretrained neural network developed for image processing) which extracted 1,000 distinct numerical features from each individual cell image. The EfficientNet-B1 was selected from amongst the other EfficientNet models due to its input image size (240 pixels) best matching the size of the individual cell images in the dataset, therefore ensuring maximal input data whilst allowing acceptable computation time on a desktop computer. […]
# Mature gametocyte cultures were divided into 100 μl “microcultures” in pre-warmed 1.5 ml tubes also containing 100 μl complete culture medium with test compounds at a final concentration of 10xIC50 or 0.5% DMSO as a solvent control. Tubes were gassed and incubated at 37°C for 24 h. The entire compound library was screened once, spread over four different experiments, each with two DMSO control tubes. An 8% formaldehyde solution was prepared by diluting 16% methanol-free formaldehyde in an equal volume of phosphate-buffered saline (PBS). In each experiment, one DMSO control tube was fixed with equal volume of 8% formaldehyde (4% final concentration) at 37°C to provide an “unactivated” gametocyte control. Gametogenesis was then triggered in the remaining DMSO control tube and all compound tubes by adding 10 μl ookinete medium, and they were immediately incubated at room temperature. After 20 min (when exflagellation is maximal), all remaining tubes were fixed for 30 min.
# 100 μl of the fixed cell suspensions were added to wells of a 24 well plate containing 1ml PBS and a poly-l-lysine-coated glass coverslip.
# [2] = system: P. falciparum female gametocytes; experiment: P. falciparum Female Gametocyte Activation Assay (PfFGAA); format: cell-based, Plasmodium falciparum; conditions: Mean TOX HepG2 over FGAA IC50; GREEN = >10-fold; RED = <10-fold
# [3] = system: P. falciparum female gametocytes; parameters: method as in Miguel-Blanco et al 2017; conditions: ref Miguel-Blanco et al 2017; read-out: Pf female gametogenesis FGAA IC50; cited from earlier work
# [4] = system: HepG2 cells; experiment: HepG2 cytotoxicity counter-screen; conditions: for Mean TOX: mean of the HepG2 TOX50 values
smiles,measurement,setting,value
CC(C)(CNC(=O)[C@H]1CCCCN1)c1nc(-c2ccc(Cl)c(O)c2)c(-c2ccncc2)[nH]1.Cl [TC04],Cellular phenotype of male gametocytes,[1],unactivated phenotype consistent with total arrest of gametogenesis
same,Cytotox ratio Pf FGAA,[2],76.7
same,IC50,[3],530 nM
same,Mean TOX,[4],40.64 µM
CC(C)(CN)c1nc(-c2ccc(Br)c(O)c2)c(-c2ccncc2)[nH]1.Cl [TC13],Cellular phenotype of male gametocytes,[1],unactivated phenotype consistent with total arrest of gametogenesis
same,Cytotox ratio Pf FGAA,[2],76.6
same,IC50,[3],840 nM
same,DGFA Tox50 HepG2,[4]; HepG2 value reported with the DGFA screen,100 µM
same,Mean TOX,[4],64.38 µM
Cl.NCC1(c2nc(-c3ccc(Cl)c(O)c3)c(-c3ccncc3)[nH]2)CCCCC1 [TC41],Cellular phenotype of male gametocytes,[1],unactivated phenotype consistent with total arrest of gametogenesis
same,Cytotox ratio Pf FGAA,[2],108.8
same,IC50,[3],210 nM
same,Mean TOX,[4],22.85 µM

# From article PMC10584170, “Machine learning-based phenotypic imaging to characterise the targetable biology of Plasmodium falciparum male gametocytes for the development of transmission-blocking antimalarials” (PLOS Pathogens, 2023)
